Read-outs that look alike come from different tables or passages of the source. Starred links: 1 amine or outer side, 2 acyl side, 3 side chain; linkers in the order of their positions; H or OH if unused. Non-standard residues stand in square brackets, D forms with d. Residues, ends and D or L forms follow the SMILES beside them. Groups on a side chain read outwards from the residue. *: point of attachment. C18 diacid = O=C(O)CCCCCCCCCCCCCCCCC(=O)*; Dip = N[C@H](C(=O)O)C(c1ccccc1)c1ccccc1; γGlu = O=C(O)[C@H](CCC(=O)[*:2])N[*:1]; αMeF = C[C@](N)(Cc1ccccc1)C(=O)O; AEEA = NCCOCCOCC(=O)O; Aib = CC(C)(N)C(=O)O
Key:
[1] = biological target: human GLP-1 receptor (hGLP-1R) (Homo sapiens, UniProt P43220); experiment: cAMP production (HTRF) in CHO cells expressing hGLP-1R; format: cell-based; design: expressed in transfected cells; settings: for % Relative Potency Ratio: % GLP-1R activity relative to GLP-1 / % GlucR activity relative to glucagon
Method in brief: (§1)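 Potency values represent EC50 from 4-parameter logistic curves of HTRF % Delta F signal. Receptor-expressing CHO cells (hGCGR 2×10^5 cells/mL, hGLP-1R 1×10^5 cells/mL) were exposed for 30 min at room temperature before two-step cAMP detection.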

[2] = biological target: human glucagon receptor (hGCGR) (Homo sapiens, UniProt P47871); experiment: cAMP production (HTRF) in CHO cells expressing hGCGR; format: cell-based; design: expressed in transfected cells; settings: geometric mean
Method in brief: as §1

[3] = Table 7, peptides modified at position 20, cAMP in CHO hGLP-1R cells, geometric mean, read-out: hGLP-1R EC50
[4] = Table 7, peptides modified at position 20, cAMP in CHO hGCGR cells, read-out: hGluc-R EC50
[5] = cAMP, CHO cells, 0.1% BSA, geometric mean, read-out: hGLP-1R EC50
[6] = cAMP, CHO cells, 0.1% BSA, read-out: hGluc-R EC50
[7] = hGluc-R EC50 (pM), cAMP, CHO cells, 0.1% BSA

Sequence of human glucagon receptor (hGCGR) (P47871 26-477): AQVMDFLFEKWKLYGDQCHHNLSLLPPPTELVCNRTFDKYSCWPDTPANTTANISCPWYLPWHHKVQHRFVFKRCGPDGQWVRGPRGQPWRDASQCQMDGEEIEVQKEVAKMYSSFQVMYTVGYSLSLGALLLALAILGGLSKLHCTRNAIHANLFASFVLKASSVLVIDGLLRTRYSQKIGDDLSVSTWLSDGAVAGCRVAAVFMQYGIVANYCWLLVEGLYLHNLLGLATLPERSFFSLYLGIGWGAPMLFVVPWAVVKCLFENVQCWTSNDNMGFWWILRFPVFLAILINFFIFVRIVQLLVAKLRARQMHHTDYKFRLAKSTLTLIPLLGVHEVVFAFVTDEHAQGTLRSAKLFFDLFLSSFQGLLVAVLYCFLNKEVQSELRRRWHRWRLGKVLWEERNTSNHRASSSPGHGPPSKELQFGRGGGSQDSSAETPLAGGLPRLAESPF
Sequence of human GLP-1 receptor (hGLP-1R) (P43220 24-463): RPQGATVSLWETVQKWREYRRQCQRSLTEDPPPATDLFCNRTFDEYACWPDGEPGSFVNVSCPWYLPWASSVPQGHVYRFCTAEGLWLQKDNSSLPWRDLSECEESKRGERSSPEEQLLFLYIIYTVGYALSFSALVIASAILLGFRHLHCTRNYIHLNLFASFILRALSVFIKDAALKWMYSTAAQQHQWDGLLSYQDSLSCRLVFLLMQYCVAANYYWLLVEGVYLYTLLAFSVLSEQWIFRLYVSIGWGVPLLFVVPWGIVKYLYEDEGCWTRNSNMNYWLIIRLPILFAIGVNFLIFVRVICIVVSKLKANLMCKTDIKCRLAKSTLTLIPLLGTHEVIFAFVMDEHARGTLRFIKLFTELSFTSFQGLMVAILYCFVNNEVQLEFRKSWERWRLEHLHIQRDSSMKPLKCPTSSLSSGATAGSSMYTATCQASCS

Row | Compound | % Relative Potency Ratio [1] | EC50 ([1]; hGLP-1R EC50 (pM)) | EC50 [2, 7] | also measured
1 | CC(C)C[C@H](NC(=O)[C@H](Cc1c[nH]c2ccccc12)NC(=O)[C@H](CCC(N)=O)NC(=O)[C@@H](NC(=O)[C@H](Cc1ccccc1)NC(=O)[C@H](CC(=O)O)NC(=O)[C@H](CCCCNC(=O)CC[C@H](NC(=O)CCCCCCCCCCCCCCCCC(=O)O)C(=O)O)NC(=O)[C@H](C)NC(=O)[C@H](CCCNC(=N)N)NC(=O)[C@H](CCCNC(=N)N)NC(=O)[C@H](CO)NC(=O)[C@H](CC(=O)O)NC(=O)[C@H](CC(C)C)NC(=O)[C@](C)(Cc1ccccc1)NC(=O)[C@H](CCCCN)NC(=O)[C@H](CO)NC(=O)[C@H](Cc1ccc(O)cc1)NC(=O)[C@H](CC(=O)O)NC(=O)[C@H](CO)NC(=O)[C@@H](NC(=O)[C@H](Cc1ccccc1)NC(=O)[C@@H](NC(=O)CNC(=O)[C@H](CCC(N)=O)NC(=O)C(C)(C)NC(=O)[C@@H](N)Cc1c[nH]cn1)[C@@H](C)O)[C@@H](C)O)C(C)C)C(=O)N[C@@H](CC(C)C)C(=O)N[C@@H](CCC(=O)O)C(=O)NC(C)(C)C(=O)N[C@H](C(=O)O)[C@@H](C)O [Peptide 341] |  |  |  | EC50 [1, 3]: 363 pM; % Relative Potency Ratio ([1]; Table 7): 0.4; EC50 [2, 4]: 72.8 pM
2 | CC[C@H](C)[C@H](NC(=O)[C@H](Cc1c[nH]c2ccccc12)NC(=O)[C@H](CCC(N)=O)NC(=O)[C@@H](NC(=O)[C@H](Cc1ccccc1)NC(=O)[C@H](CC(=O)O)NC(=O)[C@H](CCCCNC(=O)CC[C@H](NC(=O)CCCCCCCCCCCCCCCCC(=O)O)C(=O)O)NC(=O)[C@H](C)NC(=O)[C@H](C)NC(=O)[C@H](CCCNC(=N)N)NC(=O)[C@H](CO)NC(=O)[C@H](CC(=O)O)NC(=O)[C@H](CC(C)C)NC(=O)[C@](C)(Cc1ccccc1)NC(=O)[C@H](CCCCN)NC(=O)[C@H](CO)NC(=O)[C@@H](NC(=O)[C@H](CC(=O)O)NC(=O)[C@H](CO)NC(=O)[C@@H](NC(=O)[C@H](Cc1ccccc1)NC(=O)[C@@H](NC(=O)CNC(=O)[C@H](CCC(N)=O)NC(=O)C(C)(C)NC(=O)[C@@H](N)Cc1c[nH]cn1)[C@@H](C)O)[C@@H](C)O)C(C)C)C(C)C)C(=O)N[C@@H](C)C(=O)N[C@@H](CC(N)=O)C(=O)N[C@H](C(=O)O)[C@@H](C)O [Peptide 342] |  |  |  | EC50 [1, 3]: 220 pM; % Relative Potency Ratio ([1]; Table 7): 43.4; EC50 [2, 4]: 4830 pM
3 | CC[C@H](C)[C@H](NC(=O)[C@H](Cc1c[nH]c2ccccc12)NC(=O)[C@H](CCCCNC(=O)CC[C@H](NC(=O)CCCCCCCCCCCCCCCCC(=O)O)C(=O)O)NC(=O)[C@@H](NC(=O)[C@H](Cc1ccccc1)NC(=O)[C@H](CC(=O)O)NC(=O)[C@H](CCC(N)=O)NC(=O)[C@H](C)NC(=O)[C@H](C)NC(=O)[C@H](CCCNC(=N)N)NC(=O)[C@H](CO)NC(=O)[C@H](CC(=O)O)NC(=O)[C@H](CC(C)C)NC(=O)[C@@H](NC(=O)[C@H](CCCCN)NC(=O)[C@H](CO)NC(=O)[C@@H](NC(=O)[C@H](CC(=O)O)NC(=O)[C@H](CO)NC(=O)[C@@H](NC(=O)[C@H](Cc1ccccc1)NC(=O)[C@H](CO)NC(=O)CNC(=O)[C@H](CCC(N)=O)NC(=O)C(C)(C)NC(=O)[C@@H](N)Cc1c[nH]cn1)[C@@H](C)O)C(C)C)C(c1ccccc1)c1ccccc1)C(C)C)C(=O)N[C@@H](C)C(=O)N[C@@H](CC(N)=O)C(=O)N[C@H](C(N)=O)[C@@H](C)O [Peptide 343] (H-H[Aib]QGSFTSDVSK[Dip]LDSRAAQDFVK([γGlu-C18 diacid])WIANT-NH2; N-terminus assumed) | 4.2 |  |  | EC50 [1, 5]: 58.6 pM; EC50 [2, 6]: 126 pM
4 | CC[C@H](C)[C@H](NC(=O)C(C)(C)NC(=O)[C@H](CCCCNC(=O)COCCOCCNC(=O)COCCOCCNC(=O)CC[C@H](NC(=O)CCCCCCCCCCCCCCCCC(=O)O)C(=O)O)NC(=O)[C@@H](NC(=O)[C@](C)(Cc1ccccc1)NC(=O)[C@H](CC(=O)O)NC(=O)[C@H](CCC(N)=O)NC(=O)[C@H](C)NC(=O)[C@H](C)NC(=O)[C@H](CCCNC(=N)N)NC(=O)[C@H](CO)NC(=O)[C@H](CC(=O)O)NC(=O)[C@H](CC(C)C)NC(=O)C(C)(C)NC(=O)[C@H](CCCCN)NC(=O)[C@H](CO)NC(=O)[C@@H](NC(=O)[C@H](CC(=O)O)NC(=O)[C@H](CO)NC(=O)[C@@H](NC(=O)[C@](C)(Cc1ccccc1)NC(=O)[C@H](CO)NC(=O)CNC(=O)[C@H](CCC(N)=O)NC(=O)[C@H](CO)NC(=O)[C@@H](N)Cc1c[nH]cn1)[C@@H](C)O)C(C)C)C(C)C)C(=O)N[C@@H](C)C(=O)N[C@@H](CC(N)=O)C(N)=O [Peptide 344] (H-HSQGS[αMeF]TSDVSK[Aib]LDSRAAQD[αMeF]VK([AEEA-AEEA-γGlu-C18 diacid])[Aib]IAN-NH2; N-terminus assumed) |  |  |  | EC50 [1, 5]: 135 pM; EC50 [2, 6]: > 26900 pM
5 | CC[C@H](C)[C@H](NC(=O)[C@H](Cc1c[nH]c2ccccc12)NC(=O)[C@H](CCCCNC(=O)CC[C@H](NC(=O)CCCCCCCCCCCCCCCCCCC(=O)O)C(=O)O)NC(=O)[C@@H](NC(=O)[C@H](Cc1ccccc1)NC(=O)[C@H](CC(=O)O)NC(=O)[C@H](CCC(N)=O)NC(=O)[C@H](C)NC(=O)[C@H](C)NC(=O)[C@H](CCC(N)=O)NC(=O)[C@H](CO)NC(=O)[C@H](CC(=O)O)NC(=O)[C@H](CC(C)C)NC(=O)[C@](C)(Cc1ccccc1)NC(=O)[C@H](CCCCN)NC(=O)[C@H](CO)NC(=O)[C@@H](NC(=O)[C@H](CC(=O)O)NC(=O)[C@H](CO)NC(=O)[C@@H](NC(=O)[C@H](Cc1ccccc1)NC(=O)[C@@H](NC(=O)CNC(=O)[C@H](Cc1c[nH]cn1)NC(=O)C(C)(C)NC(=O)[C@@H](N)Cc1c[nH]cn1)[C@@H](C)O)[C@@H](C)O)C(C)C)C(C)C)C(=O)N[C@@H](C)C(=O)N[C@@H](CC(N)=O)C(=O)N[C@H](C(N)=O)[C@@H](C)O [Peptide 347] | 0.2 | 4970 pM | 597 pM | 
6 | CC[C@H](C)[C@H](NC(=O)[C@H](Cc1c[nH]c2ccccc12)NC(=O)[C@H](CCCCNC(=O)COCCOCCNC(=O)COCCOCCNC(=O)CC[C@H](NC(=O)CCCCCCCCCCCCCCCCC(=O)O)C(=O)O)NC(=O)[C@@H](NC(=O)[C@H](Cc1ccccc1)NC(=O)[C@H](CC(=O)O)NC(=O)[C@H](CCC(N)=O)NC(=O)[C@H](C)NC(=O)[C@H](C)NC(=O)[C@H](CCC(N)=O)NC(=O)[C@H](CO)NC(=O)[C@H](CC(=O)O)NC(=O)[C@H](CC(C)C)NC(=O)[C@](C)(Cc1ccccc1)NC(=O)[C@H](CCCCN)NC(=O)[C@H](CO)NC(=O)[C@@H](NC(=O)[C@H](CC(=O)O)NC(=O)[C@H](CO)NC(=O)[C@@H](NC(=O)[C@](C)(Cc1ccccc1)NC(=O)[C@H](CO)NC(=O)CNC(=O)[C@H](CCC(N)=O)NC(=O)C(C)(C)NC(=O)[C@@H](N)Cc1c[nH]cn1)[C@@H](C)O)C(C)C)C(C)C)C(=O)N[C@@H](C)C(=O)N[C@@H](CC(N)=O)C(=O)N[C@H](C(N)=O)[C@@H](C)O [Peptide 348] (H-H[Aib]QGS[αMeF]TSDVSK[αMeF]LDSQAAQDFVK([AEEA-AEEA-γGlu-C18 diacid])WIANT-NH2) |  | 70.1 pM | 4110 pM | 
7 | CC[C@H](C)[C@H](NC(=O)[C@H](Cc1c[nH]c2ccccc12)NC(=O)[C@H](CCCCNC(=O)COCCOCCNC(=O)COCCOCCNC(=O)CC[C@H](NC(=O)CCCCCCCCCCCCCCCCC(=O)O)C(=O)O)NC(=O)[C@@H](NC(=O)[C@H](Cc1ccccc1)NC(=O)[C@H](CC(=O)O)NC(=O)[C@H](CCC(N)=O)NC(=O)[C@H](C)NC(=O)[C@H](C)NC(=O)[C@H](CCC(N)=O)NC(=O)[C@H](CO)NC(=O)[C@H](CC(=O)O)NC(=O)[C@H](CC(C)C)NC(=O)[C@](C)(Cc1ccccc1)NC(=O)[C@H](CCCCN)NC(=O)[C@H](CO)NC(=O)[C@@H](NC(=O)[C@H](CC(=O)O)NC(=O)[C@H](CO)NC(=O)[C@@H](NC(=O)[C@](C)(Cc1ccccc1)NC(=O)[C@H](CO)NC(=O)CNC(=O)[C@H](Cc1c[nH]cn1)NC(=O)C(C)(C)NC(=O)[C@@H](N)Cc1c[nH]cn1)[C@@H](C)O)C(C)C)C(C)C)C(=O)N[C@@H](C)C(=O)N[C@@H](CC(N)=O)C(=O)N[C@H](C(=O)NCC(=O)NCC(N)=O)[C@@H](C)O [Peptide 350] (H-H[Aib]HGS[αMeF]TSDVSK[αMeF]LDSQAAQDFVK([AEEA-AEEA-γGlu-C18 diacid])WIANTGG-NH2; N-terminus assumed) | 8.6 | 88.6 pM | 384 pM | 
8 | CC[C@H](C)[C@H](NC(=O)[C@H](Cc1c[nH]c2ccccc12)NC(=O)[C@H](CCCCNC(=O)CC[C@H](NC(=O)CCCCCCCCCCCCCCCCC(=O)O)C(=O)O)NC(=O)[C@@H](NC(=O)[C@H](Cc1ccccc1)NC(=O)[C@H](CC(=O)O)NC(=O)[C@H](CCC(N)=O)NC(=O)[C@H](C)NC(=O)[C@H](C)NC(=O)[C@H](CCC(N)=O)NC(=O)[C@H](CO)NC(=O)[C@H](CC(=O)O)NC(=O)[C@H](CC(C)C)NC(=O)[C@](C)(Cc1ccccc1)NC(=O)[C@H](CCCCN)NC(=O)[C@H](CO)NC(=O)[C@@H](NC(=O)[C@H](CC(=O)O)NC(=O)[C@H](CO)NC(=O)[C@@H](NC(=O)[C@](C)(Cc1ccccc1)NC(=O)[C@H](CO)NC(=O)CNC(=O)[C@H](Cc1c[nH]cn1)NC(=O)C(C)(C)NC(=O)[C@@H](N)Cc1c[nH]cn1)[C@@H](C)O)C(C)C)C(C)C)C(=O)N[C@@H](C)C(=O)N[C@@H](CC(N)=O)C(=O)N[C@H](C(N)=O)[C@@H](C)O [Peptide 351] (H-H[Aib]HGS[αMeF]TSDVSK[αMeF]LDSQAAQDFVK([γGlu-C18 diacid])WIANT-NH2) | 0.7 | 605 pM | 216 pM | 

— US20250353891A1 (MEDIMMUNE LIMITED, priority 2022, published 2025)
